Assay results published in US12421205B2, “GLP-1 receptor agonist” (HYUNDAI PHARM CO., LTD., priority 2019, dated 2025).

Assays:
human GLP-1 receptor = molecular target: T1, human GLP-1 receptor (Homo sapiens, UniProt P43220); assay: cAMP activity test (cAMP dynamic HTRF kit) in CHO-K1/GLP-1 receptor-expressing cells; type: cell-based; conditions: cAMP activity, CHO-K1/GLP-1 receptor-expressing cells; read-out: EC50
T1 construct: host or cells: CHO-K1
Procedure: The next day, the medium was removed, and a 50 uL of HBSS medium containing 0.1% BSA, 0.5 mM IBMX, and 5 mM HEPES was added to each well. […] The cAMP activity was measured according to the manufacturer's instructions using the cAMP dynamic HTRF kit (Cisbio, 62AM4PEC). After incubation, the medium was discarded, and the cells were lysed. cAMP-d2 and anti-cAMP cryptate conjugate were added thereto and reacted for 3 hours. […] Intracellular cAMP competes with cAMP-d2 for anti-cAMP cryptate, and the measured signal of fluorescence resonance energy transfer (FRET) is inversely proportional to intracellular cAMP.

hERG = molecular target: T2, hERG (Homo sapiens, UniProt Q12809); assay: hERG inhibition test (Predictor hERG Fluorescence Polarization assay kit); type: binding; conditions: probe kit Tracer (fluorescent hERG ligand), hERG % inhibition at 10 uM, relative to E-4031 and solvent control
T2 construct: purchased Invitrogen PV5365
Procedure: To measure the hERG (Human ether-a-go-go-related gene) channel inhibition rate of the compound according to the present invention, the following test was performed using a Predictor hERG Fluorescence Polarization assay kit (Invitrogen, PV5365).
Specifically, a test substance was dissolved in DMSO to prepare a 50 mM solution. A 4 mM solution was prepared by diluting the 50 mM solution with DMSO in a U bottom 96-well plate (SPL, 34096), and was then diluted 100-fold with a test buffer to prepare a 40 uM (4×) solution. The positive control E-4031 (3 mM) provided in the kit was diluted 25-fold with a test buffer to prepare a 120 uM solution) 5 uL of the diluted test substance solution was dispensed into a 384-well assay plate (corning, 3677). hERG Membrane (2×) and Tracer (4×) provided in the kit were respectively added at 10 uL and 5 uL, and then subjected to the reaction at room temperature for 2.5 hours. After completion of the reaction, fluorescence polarization (mP) was measured with a Multimode Plate Reader (Perkin-Elmer, Envision) (excitation wavelength of 531 nm, and emission wavelength 579 nm). The value of the percent inhibitory activity (% inhibition) at 10 uM of each test substance was calculated by the following equation, and the results are shown in Table 2: (% inhibition)=100−{(mP of the compound according to the present invention−E-4031 mP)/(mP of the solvent control−E-4031 mP)}×100

T2 sequence (Q12809 whole entry): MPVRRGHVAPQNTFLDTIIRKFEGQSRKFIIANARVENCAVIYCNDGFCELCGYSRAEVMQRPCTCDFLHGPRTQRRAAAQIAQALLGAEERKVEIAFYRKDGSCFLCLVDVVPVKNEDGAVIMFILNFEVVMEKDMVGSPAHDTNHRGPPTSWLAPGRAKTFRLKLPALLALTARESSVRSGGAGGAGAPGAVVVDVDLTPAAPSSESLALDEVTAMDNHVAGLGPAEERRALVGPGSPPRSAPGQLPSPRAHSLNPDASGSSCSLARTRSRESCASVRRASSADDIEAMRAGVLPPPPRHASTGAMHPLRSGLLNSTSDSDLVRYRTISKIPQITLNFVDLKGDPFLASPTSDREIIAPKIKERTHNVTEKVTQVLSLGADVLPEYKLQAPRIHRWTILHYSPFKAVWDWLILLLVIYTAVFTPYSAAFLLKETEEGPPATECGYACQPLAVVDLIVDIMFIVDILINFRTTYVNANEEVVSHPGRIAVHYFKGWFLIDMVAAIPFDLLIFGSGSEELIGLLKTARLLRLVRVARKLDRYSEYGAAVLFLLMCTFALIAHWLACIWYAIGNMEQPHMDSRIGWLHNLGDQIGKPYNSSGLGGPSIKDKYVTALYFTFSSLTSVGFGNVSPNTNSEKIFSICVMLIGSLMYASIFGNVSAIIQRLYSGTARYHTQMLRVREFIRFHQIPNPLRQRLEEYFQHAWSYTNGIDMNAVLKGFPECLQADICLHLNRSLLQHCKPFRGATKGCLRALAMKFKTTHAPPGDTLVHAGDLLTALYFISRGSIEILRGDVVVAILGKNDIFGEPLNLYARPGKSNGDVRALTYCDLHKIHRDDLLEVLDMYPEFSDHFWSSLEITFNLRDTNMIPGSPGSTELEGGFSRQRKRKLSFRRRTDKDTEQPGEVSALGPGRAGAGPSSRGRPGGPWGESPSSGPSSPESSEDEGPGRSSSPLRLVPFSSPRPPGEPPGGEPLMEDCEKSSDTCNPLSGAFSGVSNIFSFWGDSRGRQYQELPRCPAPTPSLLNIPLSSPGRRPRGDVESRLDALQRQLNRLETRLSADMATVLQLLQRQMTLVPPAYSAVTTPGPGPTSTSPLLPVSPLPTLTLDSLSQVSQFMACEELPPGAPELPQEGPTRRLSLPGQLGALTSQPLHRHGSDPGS
T1 sequence (P43220 24-463): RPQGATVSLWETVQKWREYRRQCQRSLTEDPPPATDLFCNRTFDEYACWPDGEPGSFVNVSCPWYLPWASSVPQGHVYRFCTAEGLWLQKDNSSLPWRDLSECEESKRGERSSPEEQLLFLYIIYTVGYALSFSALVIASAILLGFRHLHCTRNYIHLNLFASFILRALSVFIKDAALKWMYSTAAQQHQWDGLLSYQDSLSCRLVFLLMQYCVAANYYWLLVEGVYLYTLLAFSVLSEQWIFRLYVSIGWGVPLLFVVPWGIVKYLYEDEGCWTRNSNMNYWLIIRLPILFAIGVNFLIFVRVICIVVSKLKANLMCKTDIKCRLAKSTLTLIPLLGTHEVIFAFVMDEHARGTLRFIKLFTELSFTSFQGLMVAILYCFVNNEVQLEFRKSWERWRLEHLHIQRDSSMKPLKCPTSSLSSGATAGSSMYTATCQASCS

| SMILES | EC50 (human GLP-1 receptor) | inhibition at 2.5 h, 10 µM (hERG) |
| --- | --- | --- |
| O=C(O)c1ccc2nc(Cc3ccc(-c4cccc(OCc5ccc(Cl)cc5F)c4)cc3F)n(C[C@H]3CCCO3)c2c1 [Example 41, (R)-2-((3′-(4-chloro-2-fluorobenzyloxy)-3-fluorobiphenyl-4-yl)methyl)-1-((tetrahydrofuran-2-yl)methyl)-1H-benzo[d]imidazole-6-carboxylic acid] | 110 nM | -16% |
| O=C(O)c1ccc2nc(Cc3ccc(-c4cccc(OCc5ccc(Cl)cc5F)c4)c(F)c3)n(C[C@H]3CCCO3)c2c1 [Example 42, (R)-2-((3′-(4-chloro-2-fluorobenzyloxy)-2-fluorobiphenyl-4-yl)methyl)-1-((tetrahydrofuran-2-yl)methyl)-1H-benzo[d]imidazole-6-carboxylic acid] | 250 nM | -23.6% |
| O=C(O)c1ccc2nc(Cc3ccc(-c4cccc(OCc5ccc(Cl)cc5F)n4)cc3F)n(CCF)c2c1 [Example 43, 2-(4-(6-(4-chloro-2-fluorobenzyloxy)pyridin-2-yl)-2-fluorobenzyl)-1-(2-fluoroethyl)-1H-benzo[d]imidazole-6-carboxylic acid] | 72 nM | -2.26% |
| N#Cc1ccc(COc2cccc(-c3ccc(Cc4nc5ccc(C(=O)O)cc5n4CCF)c(F)c3)n2)c(F)c1 [Example 44, 2-(4-(6-(4-cyano-2-fluorobenzyloxy)pyridin-2-yl)-2-fluorobenzyl)-1-(2-fluoroethyl)-1H-benzo[d]imidazole-6-carboxylic acid] | 230 nM | 1.77% |
| O=C(O)c1ccc2nc(Cc3ccc(-c4cccc(COc5ccc(Cl)cc5F)n4)cc3F)n(C[C@H]3CCCO3)c2c1 [Example 45, (R)-2-(4-(6-((4-chloro-2-fluorophenoxy)methyl)pyridin-2-yl)-2-fluorobenzyl)-1-((tetrahydrofuran-2-yl)methyl)-1H-benzo[d]imidazole-6-carboxylic acid] | 3700 nM | 27.7% |
| N#Cc1ccc(COc2cccc(-c3ccc(Cc4nc5ccc(C(=O)O)cc5n4C[C@H]4CCCO4)c(F)c3)c2)c(F)c1 [Example 46, (R)-2-((3′-(4-cyano-2-fluorobenzyloxy)-3-fluorobiphenyl-4-yl)methyl)-1-((tetrahydrofuran-2-yl)methyl)-1H-benzo[d]imidazole-6-carboxylic acid] | 260 nM | 1.04% |
| N#Cc1ccc(COc2cccc(-c3ccc(Cc4nc5ccc(C(=O)O)cc5n4C[C@H]4CCCO4)cc3F)c2)c(F)c1 [Example 47, (R)-2-((3′-(4-cyano-2-fluorobenzyloxy)-2-fluorobiphenyl-4-yl)methyl)-1-((tetrahydrofuran-2-yl)methyl)-1H-benzo[d]imidazole-6-carboxylic acid] | 1300 nM | -17.1% |
| COCCn1c(Cc2c(F)cc(-c3cccc(OCc4ccc(Cl)cc4F)c3)cc2F)nc2ccc(C(=O)O)cc21 [Example 48, 2-((3′-(4-chloro-2-fluorobenzyloxy)-3,5-difluorobiphenyl-4-yl)methyl)-1-(2-methoxyethyl)-1H-benzo[d]imidazole-6-carboxylic acid] | 42 nM | 14.3% |
| O=C(O)c1ccc2nc(Cc3ccc(-c4cccc(OCc5ccc(Cl)cc5F)n4)cc3F)n(Cc3cccs3)c2c1 [Example 49, 2-(4-(6-(4-chloro-2-fluorobenzyloxy)pyridin-2-yl)-2-fluorobenzyl)-1-(thiophen-2-ylmethyl)-1H-benzo[d]imidazole-6-carboxylic acid] | 14 nM | 12.5% |
| O=C(O)c1ccc2nc(Cc3ccc(-c4cccc(OCc5ccc(Cl)cc5F)n4)c(F)c3)n(Cc3cccs3)c2c1 [Example 50, 2-(4-(6-(4-chloro-2-fluorobenzyloxy)pyridin-2-yl)-3-fluorobenzyl)-1-(thiophen-2-ylmethyl)-1H-benzo[d]imidazole-6-carboxylic acid] | 15 nM | 4.72% |

Second part, led by results:

| EC50 (human GLP-1 receptor) | SMILES | inhibition at 2.5 h, 10 µM (hERG) |
| --- | --- | --- |
| 52 nM | O=C(O)c1ccc2nc(Cc3ccc(-c4cccc(OCc5ccc(Cl)cc5F)n4)cc3F)n(C[C@H]3CCCO3)c2c1 [Example 51, (R)-2-(4-(6-(4-chloro-2-fluorobenzyloxy)pyridin-2-yl)-2-fluorobenzyl)-1-((tetrahydrofuran-2-yl)methyl)-1H-benzo[d]imidazole-6-carboxylic acid] | -4.69% |
| 110 nM | O=C(O)c1ccc2nc(Cc3ccc(-c4cccc(OCc5ccc(Cl)cc5F)n4)c(F)c3)n(C[C@H]3CCCO3)c2c1 [Example 52, (R)-2-(4-(6-(4-chloro-2-fluorobenzyloxy)pyridin-2-yl)-3-fluorobenzyl)-1-((tetrahydrofuran-2-yl)methyl)-1H-benzo[d]imidazole-6-carboxylic acid] | 24.2% |
| 39 nM | COCCn1c(Cc2ccc(-c3cccc(OCc4ccc(Cl)cc4F)n3)cc2C)nc2ccc(C(=O)O)cc21 [Example 53, 2-(4-(6-(4-chloro-2-fluorobenzyloxy)pyridin-2-yl)-2-methylbenzyl)-1-(2-methoxyethyl)-1H-benzo[d]imidazole-6-carboxylic acid] | 18.7% |
| 110 nM | COCCn1c(Cc2ccc(-c3cccc(OCc4ccc(C#N)cc4F)n3)cc2C)nc2ccc(C(=O)O)cc21 [Example 54, 2-(4-(6-(4-cyano-2-fluorobenzyloxy)pyridin-2-yl)-2-methylbenzyl)-1-(2-methoxyethyl)-1H-benzo[d]imidazole-6-carboxylic acid] | 36.5% |
| 210 nM | O=C(O)c1ccc2nc(Cc3ccc(-c4cccc(OCc5ccc(Cl)cc5F)n4)c(F)c3)n(CCF)c2c1 [Example 55, 2-(4-(6-(4-chloro-2-fluorobenzyloxy)pyridin-2-yl)-3-fluorobenzyl)-1-(2-fluoroethyl)-1H-benzo[d]imidazole-6-carboxylic acid] | 35.4% |
| 800 nM | O=C(O)c1ccc2nc(Cc3ccc(-c4cccc(OCc5ccc(Cl)cc5F)c4)cc3F)n(CCF)c2c1 [Example 56, 2-((3′-(4-chloro-2-fluorobenzyloxy)-3-fluorobiphenyl-4-yl)methyl)-1-(2-fluoroethyl)-1H-benzo[d]imidazole-6-carboxylic acid] | 0.83% |
| 850 nM | N#Cc1ccc(COc2cccc(-c3ccc(Cc4nc5ccc(C(=O)O)cc5n4CCF)c(F)c3)c2)c(F)c1 [Example 57, 2-((3′-(4-cyano-2-fluorobenzyloxy)-3-fluorobiphenyl-4-yl)methyl)-1-(2-fluoroethyl)-1H-benzo[d]imidazole-6-carboxylic acid] | 6.42% |
| 170 nM | N#Cc1ccc(COc2cccc(-c3ccc(Cc4nc5ccc(C(=O)O)cc5n4CCF)cc3F)n2)c(F)c1 [Example 58, 2-(4-(6-(4-cyano-2-fluorobenzyloxy)pyridin-2-yl)-3-fluorobenzyl)-1-(2-fluoroethyl)-1H-benzo[d]imidazole-6-carboxylic acid] | 2.81% |
| 5.8 nM | O=C(O)c1ccc2nc(Cc3ccc(-c4cccc(OCc5ccc(Cl)cc5F)n4)cc3F)n(C[C@@H]3CCCO3)c2c1 [Example 59, (S)-2-(4-(6-(4-chloro-2-fluorobenzyloxy)pyridin-2-yl)-2-fluorobenzyl)-1-((tetrahydrofuran-2-yl)methyl)-1H-benzo[d]imidazole-6-carboxylic acid] | -21% |
